Experimental findings from ChEMBL document CHEMBL5518181, “Studies of antibacterial activity (in vitro and in vivo) and mode of action for des-acyl tridecaptins (DATs)” (Eur J Med Chem, 2024) are described below.

Data set [1] can be described thus: Toxicity in naive mouse at 5 to 15 mg/kg, iv administered as single dose every 4 hrs for 24 hrs. In kind it is organism-based. The following applies: in vivo, dose 5-15 mg/kg.
Data set [2] concerns the target T1, Cytochrome P450 2B6 (Homo sapiens, UniProt P20813).
T1 sequence (P20813 whole entry): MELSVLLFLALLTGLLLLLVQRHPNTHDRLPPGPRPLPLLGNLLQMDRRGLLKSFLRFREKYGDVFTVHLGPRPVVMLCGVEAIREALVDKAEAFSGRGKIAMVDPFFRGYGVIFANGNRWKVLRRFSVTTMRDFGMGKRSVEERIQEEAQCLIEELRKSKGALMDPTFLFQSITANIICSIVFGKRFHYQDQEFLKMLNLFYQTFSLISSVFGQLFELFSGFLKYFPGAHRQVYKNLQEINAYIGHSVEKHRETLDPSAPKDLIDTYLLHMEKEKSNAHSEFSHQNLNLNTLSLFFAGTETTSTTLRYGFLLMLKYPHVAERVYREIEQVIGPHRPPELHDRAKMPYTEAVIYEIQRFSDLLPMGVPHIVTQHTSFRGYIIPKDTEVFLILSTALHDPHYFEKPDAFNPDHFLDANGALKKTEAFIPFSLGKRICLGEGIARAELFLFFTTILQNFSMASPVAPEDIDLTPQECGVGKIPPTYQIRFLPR
Nature of the data set: Induction of CYP2B6 (unknown origin). In kind it is ADME.

Data set [3] relates to Proteus mirabilis. Nature of the data set: Antibacterial activity against Proteus mirabilis ATCC 25933 assessed as inhibition of bacterial growth incubated for 18 hrs. In kind it is functional. The following applies: read-out: MIC100.
Data set [4] relates to Salmonella typhimurium. Nature of the data set: Antibacterial activity against Salmonella typhimurium ATCC 13311 assessed as inhibition of bacterial growth incubated for 18 hrs. The class given is functional, Salmonella enterica subsp. enterica serovar Typhimurium. The following applies: Salmonella enterica, read-out: MIC100.
Data set [5] relates to Escherichia coli. The data set is described as follows: Antibacterial activity against wild-type Escherichia coli ATCC 25922 assessed as inhibition of bacterial growth by measuring fold increase in MIC incubated for 18 hrs in presence of 50% heat inactivated human serum relative to control. The class given is functional.
Data set [6] concerns Citrobacter freundii. The data set is described as follows: Antibacterial activity against Citrobacter freundii ATCC 8090 assessed as inhibition of bacterial growth incubated for 18 hrs. In kind it is functional. Conditions: read-out: MIC100.
For data set [7], the system named is Klebsiella pneumoniae. The data set is described as follows: Antibacterial activity against wild-type Klebsiella pneumoniae ATCC 13883 assessed as inhibition of bacterial growth incubated for 18 hrs. Conditions: read-out: MIC100. In kind it is functional.
A short description of data set [8]: Aqueous solubility of compound at pH 7.4. The class given is physicochemical.
Data set [9] can be described thus: AUClast in Swiss mouse kidney at 10 mg/kg, iv administered as single bolus dose and measured upto 24 hrs by LC-MS/MS analysis. In kind it is ADME, organism-based.
For data set [10], the system named is Escherichia coli. The data set is described as follows: Antibacterial activity against Escherichia coli ATCC 25922 assessed as inhibition of bacterial growth incubated for 18 hrs in presence of 5 mM KCl. The class given is functional, organism-based.
Data set [11] relates to Morganella morganii. The data set is described as follows: Antibacterial activity against Morganella morganii ATCC 25830 assessed as inhibition of bacterial growth incubated for 18 hrs. The class given is functional. The following applies: read-out: MIC100.
Data set [12] has as its system Escherichia coli. Nature of the data set: Antibacterial activity against wild-type Escherichia coli ATCC 25922 assessed as inhibition of bacterial growth incubated for 18 hrs in presence of 50% heat inactivated human serum. In kind it is functional. Conditions: read-out: MIC100.
The nature of data set [13]: Toxicity in naive mouse assessed as animal death at >15 mg/kg, iv administered as single dose every 4 hrs for 24 hrs. The following applies: in vivo. The class given is organism-based.
Data set [14] addresses Lipopolysaccharide (LPS). The data set is described as follows: Binding affinity to Pseudomonas aeruginosa LPS assessed as dissociation constant by ITC analysis. In kind it is subcellular. Background: Isothermal titration calorimetry measures the heat released or taken up as one component is titrated into another.
Data set [15] concerns Klebsiella pneumoniae. The data set is described as follows: Antibacterial activity against Klebsiella pneumoniae ATCC 43816 infected in mouse urinary tract infection model assessed as reduction in bacterial burden in bladder at <10 mg/kg, iv administered every 4 hrs and measured after 26 hrs. In kind it is functional, organism-based.
The test system of data set [16] is Pseudomonas aeruginosa. Nature of the data set: Antibacterial activity against wild-type Pseudomonas aeruginosa PAO1 assessed as inhibition of bacterial growth incubated for 24 hrs. The class given is functional. The following applies: read-out: MIC100.
Data set [17] in a line: Clearance in mouse microsomes. In kind it is ADME, Microsome.
Data set [18] concerns the target T1, Cytochrome P450 2B6. Nature of the data set: Inhibition of CYP2B6 (unknown origin). In kind it is ADME.
Data set [19] has as its system Escherichia coli. The data set is described as follows: Antibacterial activity against Escherichia coli ATCC 35218 infected in Swiss albino mouse septicemia model assessed as log10 reduction in bacterial burden below stasis in blood at 20 mg/kg, iv administered twice every 2 hrs and measured after 5 hrs. In kind it is functional.
Data set [20] in a line: Observed clearance in Swiss mouse at 10 mg/kg, iv administered as single bolus dose and measured upto 24 hrs by LC-MS/MS analysis. The following applies: in vivo. The class given is ADME, organism-based.
The nature of data set [21]: Cmax in Swiss mouse kidney at 10 mg/kg, iv administered as single bolus dose and measured upto 24 hrs by LC-MS/MS analysis. In kind it is ADME, organism-based.
Data set [22] concerns Acinetobacter baumannii. Nature of the data set: Antibacterial activity against wild-type Acinetobacter baumannii ATCC 19606 assessed as inhibition of bacterial growth incubated for 20 hrs. The following applies: read-out: MIC100. In kind it is functional.

≈ marks a conversion by molar mass, not a printed value. Calls of active or inactive are those of the source. The calls are words filed in the database; no cut-off is given here.

Consider `CC[C@H](C)[C@@H](NC(=O)[C@@H](NC(=O)[C@H](CCC(=O)O)NC(=O)[C@H](Cc1ccccc1)NC(=O)[C@@H](CCN)NC(=O)[C@H](CCN)NC(=O)[C@H](CO)NC(=O)[C@@H](Cc1c[nH]c2ccccc12)NC(=O)[C@@H](CO)NC(=O)CNC(=O)[C@@H](CCN)NC(=O)[C@H](NC(=O)[C@H](C)N)C(C)C)C(C)C)C(=O)N[C@@H](C)C(=O)O`, for which the Activity result is listed as “Non-Toxic” in data set [1], “Not Active” in data set [2] and “Toxic” in [13]. Moreover, the MIC in [3] was above 32 µg/mL; in data set [4] it was 16 µg/mL (≈ 10.9 µM); in [6], 4 µg/mL (≈ 2.73 µM); in [7], 4 µg/mL (≈ 2.73 µM); in [11], above 32 µg/mL; in [12] it was 2 µg/mL. For the same molecule, the MIC in data set [16] came out at 64 µg/mL (≈ 43.7 µM); in [22], 32 µg/mL (≈ 21.8 µM). Moreover, in [5], the “fold change (FC)” value is 2. Further, the solubility (as a rule, the dissolved amount per volume that the medium holds) in data set [8] was above 1000 µg/mL. Moreover, the AUC(0-t) – broadly, exposure summed from dosing to a finite time, without extrapolation to infinity – at 24 h in data set [9] stood at 659 µg·h/mL. Besides, the result in data set [10] and in data set [15] was Active. The Kd (in general, the equilibrium constant for the complex coming apart) in [14] amounted to 42.8 µM. In addition, the microsomal CLint – broadly, a measure of how fast metabolising enzymes remove a compound, apart from limits set by blood flow – in [17] amounted to 2 µL/min/mg. For the same molecule, in data set [18], the “inhibition (INH)” value was “Not Active”. For the same molecule, the “log(activity)” value in data set [19] is reported as around 2. Moreover, in data set [20], the clearance (usually the volume of plasma or blood freed of the substance per unit of time) turned out to be 2 mL/min/kg. In addition, the concentration in data set [21] peaked (Cmax) at 152 µg/mL.
